For data set [1], the system named is knee osteoarthritis patients. As to conditions: cited from earlier work.
In data set [2] the test system is cartilage cells acquired from knee osteoarthritis patients. The conditions noted are these: cited from earlier work.
Data set [3] has as its system rabbit model of meniscus damage. The conditions noted are these: cited from earlier work.
The subject of data set [4] is rabbit model of anterior cruciate ligament transection. As to conditions: cited from earlier work.
The subject of another data set is rats. Put plainly: Fatal toxicity after administration to rats. It counts as in vivo. As to conditions: 3300 or 2000 units/kg (body weight), intravenous, intramuscular, subdermal, or oral routes. The text has this:
(§1) The aforedescribed PTH or PTH derivative has extremely low toxicity.

Data set [5] concerns female patients diagnosed with primary osteoporosis. Kind of data set: Test Example 2: onset and exacerbation of knee osteoarthritis during once-weekly subdermal administration (placebo vs 200-unit group). It counts as in vivo, human. The method, then:
Two tablets of a calcium agent (containing 500 mg of precipitated calcium carbonate (200 mg of calcium) per tablet) were further administered orally once per day to the placebo group and the 200-unit administration group.
(§2) During the course of administration, both groups were prohibited from concurrent usage of calcitonin formulations, activated vitamin D3 formulations, vitamin K formulations, ipriflavone formulations, formulations of salts of bisphosphonic acid, estrogen formulations, anabolic-hormone formulations, doctor-prescribed calcium formulations (excepting the aforedescribed calcium agent administered as two tablets per day), and other medicinal agents thought to exert an effect on bone metabolism.
(§3) The attending physicians evaluated knee osteoarthritis according to the diagnostic criteria of each medical treatment facility on the basis of, e.g., the chief complaints of the patient, such as knee-joint pain and knee pain.

For data set [6] the test system is unchanged. Put plainly: Test Example 1: onset of knee osteoarthritis during once-weekly subdermal administration (5- vs 100-unit groups). It is filed as in vivo, human. The conditions noted are these: for Frequency of onset (%) of knee osteoarthritis / Number of cases of onset of knee osteoarthritis: subdermal once per week. The method, then: (§4) Female patients diagnosed with primary osteoporosis on the basis of the diagnostic criteria of Non-Patent Document 42 were given intermittent subdermal administrations of 5 or 100 units of an acetate salt of human PTH (1-34), which was prepared using the method of Takai (Patent Documents 4 and 5, Non-Patent Document 43), once per week (accordingly, there was a 5-unit administration group and a 100-unit administration group). The measured activity of the acetate salt of human PTH (1-34) was 3300 units/mg in the present test example according to the article of Marcus et al. (Non-Patent Document 44).
An injectable formulation containing 5 or 100 units per vial of the acetate salt of human PTH (1-34) was dissolved into 1 mL of normal saline solution at the time of usage, and 1 mL/person was subdermally administered to the 5-unit and 100-unit groups. Two tablets of a calcium agent (containing 500 mg of precipitated calcium carbonate (200 mg of calcium) per tablet) were further administered orally once per day to the 5-unit and 100-unit groups.
as §2, §3
The frequency of onset of knee osteoarthritis in the 5-unit administration group in the present test example was also compared to the natural frequency of onset. The value used for the natural frequency of onset resulted from dividing the 174,000 female arthritis patients of ages 70 through 74 throughout the country in the Japanese Nationwide Patient Survey (2005, edited by the Statistics and Information Department of the Minister's Secretariat of the Ministry of Health, Labour and Welfare, [published by] the Health and Welfare Statistics Association) by the population of 3,597,754 women of the same age throughout the country according to the Statistics Bureau of the Ministry of Internal Affairs and Communications.

The subject of the next data set is mice. Kind of data set: Fatal toxicity after administration to mice. It is filed as in vivo. The conditions noted are these: 3300 or 2000 units/kg (body weight), intravenous, intramuscular, subdermal, or oral routes.
Description: as §1

Data set [7] concerns adenyl cyclase from rat kidney. Kind of data set: Activity measurement according to the article of Marcus et al. It counts as biochemical. The conditions noted are these: method of Marcus et al. (Non-Patent Document 44). As for the experimental part:
[Non-Patent Document 44] Marcus, R et al. “Bioassay of parathyroid hormone in vitro with a stable preparation of adenyl cyclase from rat kidney” Endocrinology 85: 801-810, 1969. […]
as §4

For a further data set, the system named is hip osteoarthritis. The conditions noted are these: systematic review of clinical results; cited from earlier work.
In data set [8] the test system is monkeys subjected to ovariectomy. As to conditions: cited from earlier work.
Data set [9] has as its system rats subjected to ovariectomy. As to conditions: cited from earlier work.
The subject of data set [10] is mice subjected to orchiectomy. As to conditions: cited from earlier work.
For data set [11], the system named is spontaneous-onset guinea pig model. The conditions noted are these: cited from earlier work.
Data set [12] has as its system rat model of osteoarthritis. The conditions noted are these: cited from earlier work.
The mark [13] stands for this setting: listed as printed as 100-unit administration group, subdermal once per week.
The mark [14] stands for this setting: 5-unit administration group, 165 cases.

Marks after values point to notes of the source that are not given here.

In the case of Hyaluronate, in [1] (meta-analyses of clinical tests on knee osteoarthritis patients), the “Efficacy as a medicine for limiting the progression of the disease” value was “in doubt”. Besides, in data set [2], the “Limiting apoptosis of cartilage cells” value is listed as “activity for limiting apoptosis of cartilage cells” and the “Limiting the production of enzymes that degrade the cartilage matrix” value was “showed activity for limiting the production of enzymes that degrade the cartilage matrix”. In data set [3], the Accelerating healing result was “accelerating healing”. Moreover, the “Activity for limiting disease progression” value in [4] is “activity for limiting disease progression”.
As to human PTH (1-34), the Fatal toxicity result with rats and in the data set on mice was “never observed” each time. The “Frequency of onset of knee osteoarthritis, 200-unit group compared with placebo group” value in data set [5] (200 units once per week) was “less than that in the placebo group”. Moreover, the “Onset and exacerbation of knee osteoarthritis in osteoporosis patients” value in data set [5] (administration to osteoporosis patients) was “clearly and markedly limits the onset and exacerbation of knee osteoarthritis”. In addition, the “Exacerbation of knee osteoarthritis: Number of cases of exacerbation” value in data set [5] (setting [13]) was 4. In data set [5] (setting [13]), the “Onset of knee osteoarthritis: Frequency of onset (%)” value is recorded as 5.4%. For the same molecule, in data set [5] (setting [13]), the “Onset of knee osteoarthritis: Number of cases of onset” value is reported as 15. Besides, the “Frequency of onset (%) of knee osteoarthritis” value is on record as 6.67% in [6] (setting [14]) and 1.27* % in data set [6] (100-unit administration group, 314 cases, p < 0.05 vs 5-unit group). The “Number of cases of onset of knee osteoarthritis” value in data set [6] (setting [14]) stood at 11; in data set [6] (100-unit administration group, 314 cases), 4. Besides, the “Frequency of onset of knee osteoarthritis, 5-unit group compared with natural frequency of onset” value in [6] (5 units once per week, 6.67% vs natural 4.84%) is “statistically significant difference was not found”. For the same molecule, in [6] (100 units once per week vs 5 units, p<0.05), the “Frequency of onset of knee osteoarthritis, 100-unit group compared with 5-unit group” value was “significantly less than that in the 5-unit administration group”. Besides, the “Onset of knee osteoarthritis, 100-unit group compared with natural onset” value in [6] (100 units once per week, natural frequency of onset 4.84%) is recorded as “significantly more limited onset of knee osteoarthritis than in the case of natural onset”. Moreover, the Measured activity in data set [7] turned out to be 3300 units/mg.
With Estrogen, the “Effects of estrogen therapy” value in the data set on hip osteoarthritis is on record as “has not been found to have clear effects”. The “Risk of hip osteoarthritis” value in the data set on hip osteoarthritis is “increase the risk of hip osteoarthritis”. The “Activity for improving cartilage degeneration” value in data set [8], in data set [9] and in [10] was “activity for improving cartilage degeneration” throughout.
On to `O=P(O)(O)C(O)(Cc1cccnc1)P(=O)(O)O` [risedronate], for which, in data set [1] (clinical tests on knee osteoarthritis patients), the Medicinal effects result is reported as “medicinal effects were not found”. The “Effect of limiting cartilage degeneration” value in [11] is on record as “found to have an effect of limiting cartilage degeneration”.

B1: parathyroid hormone (protein, UniProt P01270 32-115, looked up)
Parathyroid hormone: SVSEIQLMHNLGKHLNSMERVEWLRKKLQDVHNFVALGAPLAPRDAGSQRPRKKEDNVLVESHEKSLGEADKADVNVLTKAKSQ
modifications: Parathyroid hormone
As to B1, the Therapeutic effect entry in [12] is “a slight therapeutic effect”.
